In patent US20150239831A1, “INHIBITORS OF CENTRAL NERVOUS SYSTEM VASOACTIVE INHIBITORY PEPTIDE RECEPTOR 2” (The Trustees Of Columbia University In The City Of New York, priority 2012, published 2015):

Columns and labels:
[1] = target: T1, VIPR2 (Homo sapiens, UniProt P41587); assay: BRET-based VIPR2 activation assay (CAMYEL cAMP sensor, CHO cells, VIP background); type: cell-based; details: FIG. 1C, FIG. 5
T1 sequence (P41587 24-438): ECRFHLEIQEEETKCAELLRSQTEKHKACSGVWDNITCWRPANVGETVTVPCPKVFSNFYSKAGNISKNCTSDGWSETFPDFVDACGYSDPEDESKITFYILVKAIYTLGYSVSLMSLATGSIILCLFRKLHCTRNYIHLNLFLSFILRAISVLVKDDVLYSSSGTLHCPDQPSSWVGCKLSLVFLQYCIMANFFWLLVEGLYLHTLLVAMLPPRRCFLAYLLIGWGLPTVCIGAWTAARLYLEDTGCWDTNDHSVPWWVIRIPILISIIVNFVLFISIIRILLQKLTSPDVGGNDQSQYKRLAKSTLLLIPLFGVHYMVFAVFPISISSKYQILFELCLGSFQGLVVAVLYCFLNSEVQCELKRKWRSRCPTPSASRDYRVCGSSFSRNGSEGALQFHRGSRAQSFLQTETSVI
Excerpt: In such a system, a detector cell is used which expresses both the VIPR2 receptor and “CAMYEL,” a YFP-Epac-RLuc8 BRET sensor construct. This construct includes Epac1, a guanine nucleotide exchange factor activated by direct binding of cAMP, fused with an enhanced YFP and Renilla luciferase 8 (Rluc8) allowing BRET upon cAMP-induced conformational changes (Jiang et al., 2007, J Biol Chem. 282:10576-10584). In response to elevated cAMP levels, there is a conformational change in Epac and therefore a change in the proximity of the fused chromophores, Rluc8 and YFP, resulting in measurable energy transfer. Coexpression of this BRET construct with VIPR2, optionally tagged at the N-terminus with a signal peptide and FLAG epitope (SF-VIPR2), for example in HEK293 cells, allows for detection of a VIPR2-specific response to cAMP. BRET readout may be calculated by quantifying the ratio of the light emitted by the acceptor, YFP (λ=525 nm), over the emission from the donor, RLuc8 (λ=485 nm). The proximity of the donor and acceptor, and therefore the BRET ratio, decreases in the presence of cAMP. In non-limiting specific embodiments, a stable cell line may be generated for this assay using the Flp-In T-Rex system in HEK293 cells. This system allows site-specific single copy integration of the gene of interest and control of expression levels using the Tet-repressor site making receptor expression tetracycline-inducible. For example, a CAMYEL and VIPR2 expressing line may be induced with 0.01 μg/ml tetracycline, then, 24 hours later cells may be collected and distributed into 96-well plates. After treatment with candidate inhibitor compound, for example at 5, 1 and 0.5 μM concentrations, cells may be incubated with the light emitting luciferin, coelenterazine H, for 5 min and incubated for 5 min with VIP at increasing concentrations, for example ranging from […] to 10 μM. The fluorescence and luminescence may then be quantified, for example using a PHERAstar (BMG) plate reader. […] Alternatively, analogous experiments may be performed using human cells harvested from a patient having a VIPR2 copy number variation, for example (but not by way of limitation) pluripotent stem cells prepared from such a patient and then transfected with a CAMYEL construct.
Numerous cellular assays were developed that were able to detect VIP responses absent of interference from non-specific vasopressin receptors using this CHO based system. VIPR2 is a Gs coupled receptor. Activation of VIPR2 by VIP leads to both an elevation in cAMP signaling and the recruitment of β-arrestin. A variety of combinations can be transiently transfect into these CHO cells for the assessment of cellular responses to VIP. For the BRET readout CHO cell lines expressing an YFP-Epac-RLuc8 (CAMYEL) BRET sensor were used to detect changes in cAMP. This construct includes Epac1, a guanine nucleotide exchange factor activated by direct binding of cAMP, fused to an enhanced YFP and RLuc8 allowing a change in BRET upon cAMP-induced conformational changes. The key for medium to high throughput screening assays is the use of stable cell lines allowing the continuous assaying of multiple compounds with the ability to generate large numbers of cells for rapid use. In these lines VIPR2 was expressed as one of the stable cell lines assays. This was introduced into the CHO-Flp-IN to allow the generation of isogenic stable cell lines expressing high levels of VIPR2 under control of the CMV promoter. This has been introduced into this line together with the CAMYEL construct previously described. This allows for detection of VIPR2-specific responses to cAMP. EYFP fluorescence and RLuc8 luminescence is quantified in the presence of 5 μM light-emitting luciferin, coelenterazine H, using a PHERAstar (BMG) plate reader. BRET is calculated by quantifying the ratio of the light emitted by the acceptor, YFP (λ=525 nm), over the emission from the donor, RLuc8 (λ=485 nm).
3. […]

[2] = target: T2, PAC1 (Homo sapiens, UniProt P41586); details: Chu et al., 2010; cited from earlier work
T2 sequence (P41586 21-468): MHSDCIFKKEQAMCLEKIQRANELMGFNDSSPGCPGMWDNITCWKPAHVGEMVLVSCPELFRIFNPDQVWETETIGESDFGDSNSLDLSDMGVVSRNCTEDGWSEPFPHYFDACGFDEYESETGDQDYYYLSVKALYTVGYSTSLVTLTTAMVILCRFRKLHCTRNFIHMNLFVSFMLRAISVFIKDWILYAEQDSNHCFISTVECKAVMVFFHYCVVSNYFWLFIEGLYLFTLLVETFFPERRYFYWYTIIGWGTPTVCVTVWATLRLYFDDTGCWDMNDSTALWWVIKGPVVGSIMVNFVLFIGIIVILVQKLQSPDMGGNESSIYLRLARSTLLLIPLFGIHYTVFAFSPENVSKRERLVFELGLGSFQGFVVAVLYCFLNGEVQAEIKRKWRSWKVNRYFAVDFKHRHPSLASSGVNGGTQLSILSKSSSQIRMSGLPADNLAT

[3] = target: T3, VPAC1 (Homo sapiens, UniProt P32241); details: Chu et al., 2010; cited from earlier work
T3 sequence (P32241 31-457): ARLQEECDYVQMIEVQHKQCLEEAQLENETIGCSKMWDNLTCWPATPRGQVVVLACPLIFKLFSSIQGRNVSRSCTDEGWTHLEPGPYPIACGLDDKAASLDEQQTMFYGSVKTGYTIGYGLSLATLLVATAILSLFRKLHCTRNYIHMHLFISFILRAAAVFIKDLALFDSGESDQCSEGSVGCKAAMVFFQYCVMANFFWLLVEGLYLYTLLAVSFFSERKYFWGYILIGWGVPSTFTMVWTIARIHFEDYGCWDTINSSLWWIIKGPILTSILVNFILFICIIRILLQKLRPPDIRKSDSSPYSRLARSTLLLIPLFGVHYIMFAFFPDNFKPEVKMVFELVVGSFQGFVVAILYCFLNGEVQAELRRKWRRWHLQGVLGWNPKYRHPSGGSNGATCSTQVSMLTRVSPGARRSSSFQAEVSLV

VIPR2 inhibition in BRET-based assay (in words) [1]: rightward shift
SMILES: O=C(N[C@H]1c2ccccc2C[C@H]1O)[C@H](Cc1ccccc1)C[C@H](O)CNS(=O)(=O)c1ccc([N+](=O)[O-])cc1 [Compound 1]
agonist or antagonist activities for PAC1 [2]: no detectable agonist or antagonist activities
agonist or antagonist activities for VPAC1 [3]: no detectable agonist or antagonist activities
